Source: patent US6759416B2, “Anticancer conjugates of camptothecin and unsaturated fatty acids” (priority 2002, dated 2004)
Read-outs that look alike come from different tables or passages of the source.

Assays:
L1210 leukemia cells = experiment: Anticancer activity assay in vitro: 48-h 3H-thymidine incorporation (proliferation) assay; type: cell-based, murine; details: for DNA fragmentation / apoptosis: L1210 cells, data not shown; for IC50: L1210 leukemia cells, 48-h proliferation assay, 3H-thymidine uptake, mean of three experiments
Experimental: L1210 leukemia cells (2.5×10^4cells/well) in RPMI-1640 medium supplemented with 10% FCS medium were seeded in a 96-well plate. Drugs (10 μL) at increasing concentrations were added to each well, and the total volume was adjusted to 0.1 mL/well using the same medium. HCPT was used as a positive control. The plate was incubated for 24 h at 37° C. followed by addition of 10 μL of ^3H-thymidine (20 μCi/mL). The plate was incubated for another 24 h. The cells were harvested, and radioactivity was counted using the Packard Matrix 96 beta counter. The results were expressed as the minimal concentration that inhibits ^3H-thymidine incorporation by 50% (IC50). Percent growth inhibition was calculated as follows: [(total cpm—experimental cpm)/total cpm]×100. […] Doxorubicin (Dox) was used as a positive control.

L1210 leukemia = system: L1210 leukemia
Experimental: The compounds were tested in male BDF1 mice (18-22 g, 6 mice/group) bearing L1210 leukemia cells. Tumor lines were propagated in DBA/2 female mice with cell (10^5 cells/mouse) transfer every 7 days. Diluted ascitic fluid (0.1 mL) containing 10^5 leukemia cells were inoculated, i.p. in mice on day 0. Mice were injected with 0.1 mL of drug preparation.
A conjugate of HCPT and piperidinopiperidine, PP-HCPT, was synthesized, and its antitumor activity was evaluated against L1210 leukemia in mice.
DHA-HCPT was also tested using multiple doses (days 1, 5 and 9).

Lewis lung carcinoma = experiment: Antitumor activity against Lewis lung carcinoma in mice; type: in vivo
Experimental: For example, at a dose of 120 mg/kg, it inhibited tumor growth by 83% while the bodyweight loss was only 10%. The parent HCPT inhibited tumor growth by 57% at a dose of 20 mg/kg with a 24% weight loss. The group treated with DHA-HCPT also lived longer.

colon 38 carcinoma = experiment: Antitumor activity against colon 38 carcinoma in mice (single dose, early stage and late stage); type: in vivo; details: for weight loss: stated as loss
Text: However, DHA-HCPT (weight loss of 16%) is less toxic than cisplatin (weight loss of 20%).
The first experiment was designed to evaluate the antitumor activity of the drugs against early tumor, i.e., the tumors were transplanted on day 0, and the drugs were given beginning the next day. The second experiment was designed to evaluate the drug's activity against the established tumor, i.e., the tumors were transplanted on day 0, and the drugs were given when the tumors grew to 3-4 mm in size.
In the late tumor model, at a dose of 100 mg/kg, DHA-HCPT inhibited tumor growth by 80% (Table 10).

[1] = L1210, 48-h cell growth inhibition assay
[2] = 150 mg/kg i.p. on days 1, 5 and 9
[3] = 125 mg/kg i.p. on days 1, 5 and 9
[4] = 5 mg/kg i.p. on days 1, 5, and 9
[5] = 120 mg/kg i.p. on days 1, 5 and 9
[6] = 100 mg/kg i.p. on days 1, 5, and 9
[7] = early stage, 67 mg/kg i.p. on days 1, 5 and 9
[8] = early stage, 100 mg/kg i.p. on days 1, 5 and 9
[9] = late stage, 100 mg/kg i.p. on days 9, 13 and 17

With `CC[C@@]1(O)C(=O)OCc2c1cc1n(c2=O)Cc2cc3cc(O)ccc3nc2-1` [HCPT, 10-hydroxycamptothecin, reference compound] the “DNA fragmentation / apoptosis” value (L1210 leukemia cells) was “caused DNA fragmentation and cells died by apoptosis”, the IC50 (L1210 leukemia cells) was 230 nM and the “% ILS” value (L1210 leukemia; 15 mg/kg i.p. on day 1) was 77%. The “% Weight change” value (L1210 leukemia; 15 mg/kg i.p. on day 1) was −10%, the bodyweight loss (L1210 leukemia; 15 mg/kg, one dose, stated as loss) was 10% and the “% ILS” value (L1210 leukemia; 20 mg/kg i.p. on day 1) was 108%. For the same compound, the 30-day survivors (L1210 leukemia; 20 mg/kg i.p. on day 1, 6 mice/group) was 0, the “% Weight change” value (L1210 leukemia; 20 mg/kg i.p. on day 1, BDF1 mice, day 0 to lightest weight) was −16% and the “% ILS” value (Lewis lung carcinoma; 20 mg/kg i.p. on day 1) was 16%. The “% TGI” value (Lewis lung carcinoma; 20 mg/kg i.p. on day 1) was 57%, the “% Weight change” value (Lewis lung carcinoma; 20 mg/kg i.p. on day 1) was −24% and the “Tumor weight (g ± SD)” value (Lewis lung carcinoma; 20 mg/kg i.p. on day 1, control 1.77 ± 0.89) was 0.76 ± 0.59 g. It also gave a weight loss (Lewis lung carcinoma; 20 mg/kg, one dose i.p., stated as loss) of 24%.

For `CC[C@@]1(O)C(=O)OCc2c1cc1n(c2=O)Cc2cc3cc(OC(=O)N4CCC(N5CCCCC5)CC4)ccc3nc2-1` [PP-HCPT, 10-[4-(1-Piperidino)-1-piperidino]carbonyloxycamptothecin], the “fold less potent than DHA-HCPT (IC50)” value (L1210 leukemia cells; [1]) was 16 fold, the “fold less potent than HCPT (IC50)” value (L1210 leukemia cells; [1]) was 128 fold and the IC50 (L1210 leukemia cells) was 30000 nM. The “% ILS” value (L1210 leukemia; 37 mg/kg i.p. on day 1) was 46%, the “% Weight change” value (L1210 leukemia; 37 mg/kg i.p. on day 1) was 5% and the 30-day survivors (L1210 leukemia; 37 mg/kg i.p. on day 1, 6 mice/group) was 0. For the same compound, the “% ILS” value (L1210 leukemia; 73 mg/kg i.p. on day 1) was 77%, the “% Weight change” value (L1210 leukemia; 73 mg/kg i.p. on day 1) was 2% and the 30-day survivors (L1210 leukemia; 73 mg/kg i.p. on day 1, 6 mice/group) was 0. For the same compound, the “% ILS” value (L1210 leukemia; [2]) was 123% and the “% Weight change” value (L1210 leukemia; [2]) was −18%.

With `O=P1(N(CCCl)CCCl)NCCCO1` (stereo not drawn) [Cyclophosphamide, reference compound] the “% ILS” value (L1210 leukemia; [3]) was 173%, the “% Weight change” value (L1210 leukemia; [3]) was −15% and the “30-day survivors (cures)” value (L1210 leukemia; 125 mg/kg i.p. on days 1, 5 and 9, 6 mice/group) was 0. For the same compound, the “% ILS” value (L1210 leukemia; 200 mg/kg i.p. on day 1) was 123%, the “% Weight change” value (L1210 leukemia; 200 mg/kg i.p. on day 1) was −9% and the 30-day survivors (L1210 leukemia; 200 mg/kg i.p. on day 1, 6 mice/group) was 0.

In the case of `N.N.[Cl][Pt][Cl]` [Cisplatin, reference compound], the “% TGI” value (Lewis lung carcinoma; [4]) is reported as 73%, the “% Weight change” value (Lewis lung carcinoma; [4]) is reported as −19% and the “Tumor weight (g ± SD)” value (Lewis lung carcinoma; 5 mg/kg i.p. on days 1, 5, and 9, control 1.20 ± 0.61) is reported as 0.32 ± 0.17 g. The “% TGI” value (colon 38 carcinoma; 10 mg/kg i.p. on day 1) was 88%, the “% Weight change” value (colon 38 carcinoma; 10 mg/kg i.p. on day 1) was −20% and the “Tumor weight (g ± SD)” value (colon 38 carcinoma; 10 mg/kg i.p. on day 1, control 1.20 ± 0.84) was 0.14 ± 0.07 g. For the same compound, the weight loss (colon 38 carcinoma; given once (10 mg/kg per Table 8)) was 20%.

`COc1cccc2c1C(=O)c1c(O)c3c(c(O)c1C2=O)C[C@@](O)(C(=O)CO)C[C@@H]3O[C@H]1C[C@H](N)[C@H](O)[C@H](C)O1` [Dox, Doxorubicin, reference compound] gave an IC50 (L1210 leukemia cells; Mus musculus) of 180 ± 90 nM.

For `CC/C=C\C/C=C\C/C=C\C/C=C\C/C=C\C/C=C\CCC(=O)Nc1ccc(CN2CCN(C(=O)Oc3ccc4nc5c(cc4c3)Cn3c-5cc4c(c3=O)COC(=O)[C@]4(O)CC)CC2)cc1` (stereo in doubt) [DHA-HCPT, 10-[4-[[4-(cis-4,7,10,13,16,19-Docosahexenoyl)amino]benzyl]-1-piperazino]carbonyl-oxycamptothecin], the “fold less potent than HCPT (IC50)” value (L1210 leukemia cells; [1]) was 8 fold, the “DNA fragmentation / apoptosis” value (L1210 leukemia cells) was “caused DNA fragmentation and cells died by apoptosis” and the IC50 (L1210 leukemia cells) was 1800 nM. For the same compound, the “% ILS” value (L1210 leukemia; 40 mg/kg i.p. on day 1) was 108%, the “% Weight change” value (L1210 leukemia; 40 mg/kg i.p. on day 1) was 2% and the 30-day survivors (L1210 leukemia; 40 mg/kg i.p. on day 1, 6 mice/group) was 0. For the same compound, the “% ILS” value (L1210 leukemia; 60 mg/kg i.p. on day 1) was 138%, the “% Weight change” value (L1210 leukemia; 60 mg/kg i.p. on day 1) was 1% and the 30-day survivors (L1210 leukemia; 60 mg/kg i.p. on day 1, 6 mice/group) was 0. The “% ILS” value (L1210 leukemia; [5]) was 323%, the “% Weight change” value (L1210 leukemia; [5]) was −12% and the “% ILS” value (L1210 leukemia; 180 mg/kg i.p. on day 1) was 154%. The “% Weight change” value (L1210 leukemia; 180 mg/kg i.p. on day 1) was −12%, the “% ILS” value (Lewis lung carcinoma; 80 mg/kg i.p. on day 1) was 23% and the “% TGI” value (Lewis lung carcinoma; 80 mg/kg i.p. on day 1) was 48%. The “% Weight change” value (Lewis lung carcinoma; 80 mg/kg i.p. on day 1) was −5%, the “Tumor weight (g ± SD)” value (Lewis lung carcinoma; 80 mg/kg i.p. on day 1, control 1.77 ± 0.89) was 0.93 ± 0.53 g and the “% TGI” value (Lewis lung carcinoma; [6]) was 88%. For the same compound, the “% Weight change” value (Lewis lung carcinoma; [6]) was −9%, the “Tumor weight (g ± SD)” value (Lewis lung carcinoma; 100 mg/kg i.p. on days 1, 5, and 9, control 1.20 ± 0.61) was 0.15 ± 0.10 g and the “% ILS” value (Lewis lung carcinoma; 120 mg/kg i.p. on day 1) was 33%. The “% TGI” value (Lewis lung carcinoma; 120 mg/kg i.p. on day 1) was 83%, the “% Weight change” value (Lewis lung carcinoma; 120 mg/kg i.p. on day 1) was −10% and the “Tumor weight (g ± SD)” value (Lewis lung carcinoma; 120 mg/kg i.p. on day 1, control 1.77 ± 0.89) was 0.31 ± 0.18 g. For the same compound, the cures (Lewis lung carcinoma; 120 mg/kg, multiple doses (days 1, 5, and 9)) was 50%, the bodyweight loss (Lewis lung carcinoma; 120 mg/kg, one dose i.p., stated as loss) was 10% and the weight loss (colon 38 carcinoma; 120 mg/kg given once) was 16%. The “% TGI” value (colon 38 carcinoma; 120 mg/kg i.p. on day 1) was 91%, the “% Weight change” value (colon 38 carcinoma; 120 mg/kg i.p. on day 1) was −16% and the “Tumor weight (g ± SD)” value (colon 38 carcinoma; 120 mg/kg i.p. on day 1, control 1.20 ± 0.84) was 0.11 ± 0.09 g. For the same compound, the “% TGI” value (colon 38 carcinoma; [7]) was 43%, the “% Weight change” value (colon 38 carcinoma; [7]) was −10% and the “Tumor weight (g ± SD)” value (colon 38 carcinoma; early stage, 67 mg/kg i.p. on days 1, 5 and 9, control 1.13 ± 0.39) was 0.64 ± 0.50 g. The “% TGI” value (colon 38 carcinoma; [8]) was 78%, the “% Weight change” value (colon 38 carcinoma; [8]) was −12% and the “Tumor weight (g ± SD)” value (colon 38 carcinoma; early stage, 100 mg/kg i.p. on days 1, 5 and 9, control 1.13 ± 0.39) was 0.25 ± 0.22 g. For the same compound, the “% TGI” value (colon 38 carcinoma; early stage, 150 mg/kg i.p. on days 1 and 5) was 84%, the “Tumor weight (g ± SD)” value (colon 38 carcinoma; early stage, 150 mg/kg i.p. on days 1 and 5, control 1.13 ± 0.39) was 0.18 ± 0.12 g and the “% TGI” value (colon 38 carcinoma; [9]) was 80%. For the same compound, the “% Weight change” value (colon 38 carcinoma; [9]) was −14%, the “Tumor weight (g ± SD)” value (colon 38 carcinoma; late stage, 100 mg/kg i.p. on days 9, 13 and 17, control 1.13 ± 0.39) was 0.22 ± 0.14 g and the “% TGI” value (colon 38 carcinoma; late stage, 150 mg/kg i.p. on days 9 and 13) was 79%. The “Tumor weight (g ± SD)” value (colon 38 carcinoma; late stage, 150 mg/kg i.p. on days 9 and 13, control 1.13 ± 0.39) was 0.24 ± 0.18 g.
